US20060088556A1 (priority 2003, published 2006)
Structures can show the parent of a compound that is named as a salt.

How the values were obtained:
[1] = Solubility in phosphate buffered saline (receiver fluid); assay type: physicochemical; conditions: aqueous buffer
Description: (§1) Accurate determination of the rate of transport of buspirone through the skin relies upon the maintenance of sink conditions in the receiver fluid. […] Such high solubility was sufficient to ensure sink conditions for the study.

[2] = system: oxazolone hypersensitivity reaction; conditions: mice, cited from earlier work
[3] = Stability in the receiver fluid; assay type: physicochemical; conditions: PBS receiver fluid, length of the study (48 hours)
Description: as §1

| SMILES | solubility [1] [µg/mL] | oxazolone ear swelling ([2]; applied topically in an undefined solution, over the range 100 mg/ml to 0.25 mg/ml, McAloon et al. 1995) | inhibition of oxazolone hypersensitivity reactions ([2]; from U.S. Pat. No. 5,484,788, 5,631,017, WO 94/22448) | stability in the receiver fluid [3] |
| --- | --- | --- | --- | --- |
| O=C1CC2(CCCC2)CC(=O)N1CCCCN1CCN(c2ncccn2)CC1 [buspirone hydrochloride] | > 3000 |  |  |  |
| O=C1CC2(CCCC2)CC(=O)N1CCCCN1CCN(c2ncccn2)CC1 [buspirone, 8-[4-[4-(2-pyrimidyl)-1-piperazinyl]butyl]-8-azaspiro[4.5]decane-7,9-dione] |  | inhibits oxazolone ear swelling | inhibit oxazolone hypersensitivity reactions | stable |
